Experimental data from ChEMBL document CHEMBL1201862, “PubChem BioAssay data set” (2004).
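Protocol summary: plate cells (96-well), add compound at 5 concentrations, incubate 48 h, interpolate endpoints linearly. Here, GI50 denotes the concentration required for 50% inhibition of growth.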 Activity calls are given as the source filed them. No stated cut-off is given here; in the data, active = GI50 up to about 1.1 µM and inactive = higher. Peptide text beside a SMILES is read from it. * marks the point of attachment. Cbz = O=C(OCc1ccccc1)*

Experiments:
Test in all cases: inhibition of tumour cell growth, NCI panel, 48 h
A498 = test system: A498
ACHN = test system: ACHN
BT-549 = test system: BT-549
DU-145 = test system: DU-145
HCT-116 = test system: HCT-116
Hs-578T = test system: Hs-578T
MCF7 = test system: MCF7
Malme-3M = test system: Malme-3M
NCI-H226 = test system: NCI-H226
NCI-H23 = test system: NCI-H23
NCI-H460 = test system: NCI-H460
OVCAR-3 = test system: OVCAR-3
PC-3 = test system: PC-3
SF-268 = test system: SF-268
SK-MEL-28 = test system: SK-MEL-28
SN12C = test system: SN12C
SNB-75 = test system: SNB-75
SW-620 = test system: SW-620
U-251 = test system: U-251
UO-31 = test system: UO-31

| Structure (SMILES) | GI50 (A498) | GI50 (ACHN) | GI50 (BT-549) | GI50 (DU-145) | GI50 (HCT-116) | GI50 (Hs-578T) | GI50 (MCF7) | GI50 (Malme-3M) | GI50 (NCI-H226) | GI50 (NCI-H23) | GI50 (NCI-H460) | GI50 (OVCAR-3) | GI50 (PC-3) | GI50 (SF-268) | GI50 (SK-MEL-28) | GI50 (SN12C) | GI50 (SNB-75) | GI50 (SW-620) | GI50 (U-251) | GI50 (UO-31) |
| --- | --- | --- | --- | --- | --- | --- | --- | --- | --- | --- | --- | --- | --- | --- | --- | --- | --- | --- | --- | --- |
| CC(CO)[C@H]1OC(=O)C=C2[C@@]13O[C@@H]3[C@H]1OC(=O)[C@@]3(C)[C@H]4O[C@H]4C[C@@]2(C)[C@@H]13 (stereo not given in full) | 4.1 µM (inactive) | 0.843 µM (active) | 2.11 µM (inactive) | 1.39 µM (inactive) | 1.07 µM (active) | 2.52 µM (inactive) | 1.07 µM (active) | 2.13 µM (inactive) | 1.27 µM (inactive) | 2.43 µM (inactive) | 0.583 µM (active) | 2.17 µM (inactive) | 2.96 µM (inactive) | 0.973 µM (active) | 1.83 µM (inactive) | 1.92 µM (inactive) | 0.738 µM (active) | 1.65 µM (inactive) | 2.15 µM (inactive) | 1.73 µM (inactive) |
| C1CSCCCSCCCSCCCSCCCSC1 | 36.2 µM (inactive) | 29.2 µM (inactive) | 33.8 µM (inactive) | 46.5 µM (inactive) | 31.2 µM (inactive) | 44.8 µM (inactive) | 24.5 µM (inactive) | 33.3 µM (inactive) | 25.5 µM (inactive) | 26.5 µM (inactive) | 14.4 µM (inactive) | 28.6 µM (inactive) | 19 µM (inactive) | 33.1 µM (inactive) | > 100 µM (inactive) | 37.2 µM (inactive) | 20.1 µM (inactive) | 56.5 µM (inactive) | 42.5 µM (inactive) | 26.8 µM (inactive) |
| Cc1cccc2sc(NC(=O)NS(=O)(=O)n3cnc4ccccc43)nc12 | 25.5 µM (inactive) | 32.8 µM (inactive) | 23.3 µM (inactive) | 32.8 µM (inactive) | 28.1 µM (inactive) | 13.8 µM (inactive) | 16.1 µM (inactive) | 25.2 µM (inactive) | 59 µM (inactive) | 18.4 µM (inactive) | 29.9 µM (inactive) | 22.3 µM (inactive) | 28.6 µM (inactive) | 28.5 µM (inactive) | 35.9 µM (inactive) | 25.9 µM (inactive) | 18.8 µM (inactive) | 28.4 µM (inactive) | 21 µM (inactive) | 22.2 µM (inactive) |
| O=C(O)CCC(NC(=O)OCc1ccccc1)C(=O)NC(Cc1c[nH]cn1)C(=O)O (stereo not drawn) (Cbz-Glu-His-OH; configuration not given here) | > 100 µM (inactive) | > 100 µM (inactive) | > 100 µM (inactive) | > 100 µM (inactive) | > 100 µM (inactive) | > 100 µM (inactive) | > 100 µM (inactive) | > 100 µM (inactive) | > 100 µM (inactive) | > 100 µM (inactive) | > 100 µM (inactive) | > 100 µM (inactive) | > 100 µM (inactive) | > 100 µM (inactive) | > 100 µM (inactive) | > 100 µM (inactive) | > 100 µM (inactive) | > 100 µM (inactive) | > 100 µM (inactive) | > 100 µM (inactive) |
| COc1ccc(/C=C2\CCC(C)(CN(C)C)C2=O)cc1Br (stereo not given) | 22.4 µM (inactive) | 24.6 µM (inactive) | 16 µM (inactive) | 50.4 µM (inactive) | 17.2 µM (inactive) | 30.5 µM (inactive) | 13.5 µM (inactive) | 25.8 µM (inactive) | 18.9 µM (inactive) | 28.8 µM (inactive) | 26.7 µM (inactive) | 18.2 µM (inactive) | 20.4 µM (inactive) | 16.5 µM (inactive) | 22.9 µM (inactive) | 17.5 µM (inactive) | 25.6 µM (inactive) | 19.8 µM (inactive) | 21.8 µM (inactive) | 18.1 µM (inactive) |
| C1COC2SC3=C(SC(=C4SC5=C(SCCS5)S4)S3)SC2O1 (stereo not given) | > 100 µM (inactive) | > 100 µM (inactive) | > 100 µM (inactive) | > 100 µM (inactive) | > 100 µM (inactive) | 80.9 µM (inactive) | > 100 µM (inactive) | 13 µM (inactive) | > 100 µM (inactive) | > 100 µM (inactive) | > 100 µM (inactive) | > 100 µM (inactive) | > 100 µM (inactive) | > 100 µM (inactive) | > 100 µM (inactive) | > 100 µM (inactive) | 71.1 µM (inactive) | 68.7 µM (inactive) | > 100 µM (inactive) | > 100 µM (inactive) |
| Cc1ccc(-c2nnc(-c3ccc4ccccc4c3)o2)cc1 | > 100 µM (inactive) | > 100 µM (inactive) | 13.7 µM (inactive) | 18.2 µM (inactive) | 23.6 µM (inactive) | 23 µM (inactive) | > 100 µM (inactive) | 5.38 µM (inactive) | 25.2 µM (inactive) | > 100 µM (inactive) | 83 µM (inactive) | 99.1 µM (inactive) | 52.2 µM (inactive) | 9.31 µM (inactive) | 33.3 µM (inactive) | 14.6 µM (inactive) | 6.7 µM (inactive) | 20 µM (inactive) | 27.7 µM (inactive) | 15.1 µM (inactive) |
| CNS(=O)(=O)c1ccccc1C(=N)c1ccccc1 | > 100 µM (inactive) | > 100 µM (inactive) | > 100 µM (inactive) | > 100 µM (inactive) | > 100 µM (inactive) | > 100 µM (inactive) | > 100 µM (inactive) | > 100 µM (inactive) | > 100 µM (inactive) | > 100 µM (inactive) | > 100 µM (inactive) | > 100 µM (inactive) | > 100 µM (inactive) | > 100 µM (inactive) | > 100 µM (inactive) | > 100 µM (inactive) | 56.4 µM (inactive) | > 100 µM (inactive) | > 100 µM (inactive) | > 100 µM (inactive) |
| CC1=C(/C=C/C(C)=C/C=C/C(C)=C/C(=O)Nc2ccc(O)cc2)C(C)(C)CCC1 [FENRETINIDE] | 4.73 µM (inactive) | 4.19 µM (inactive) | 6.52 µM (inactive) | 7.6 µM (inactive) | 4.06 µM (inactive) | 3.33 µM (inactive) | 2.65 µM (inactive) | 4.94 µM (inactive) | 5.13 µM (inactive) | 2.06 µM (inactive) | 4.63 µM (inactive) | 2.55 µM (inactive) | 3.13 µM (inactive) | 3.52 µM (inactive) | 4.23 µM (inactive) | 2.52 µM (inactive) | 7.03 µM (inactive) | 5.48 µM (inactive) | 4.65 µM (inactive) | 3.26 µM (inactive) |
| CN1N=C(c2ccccc2)C(C(c2ccccc2[N+](=O)[O-])C2C(=O)N(C)N=C2c2ccccc2)C1=O (stereo not given) | > 81.8 µM (inactive) | > 100 µM (inactive) | 63.4 µM (inactive) | > 100 µM (inactive) | > 78.7 µM (inactive) | > 73.1 µM (inactive) | 47.1 µM (inactive) | > 100 µM (inactive) | > 51.1 µM (inactive) | > 100 µM (inactive) | > 100 µM (inactive) | 44.6 µM (inactive) | 67.5 µM (inactive) | 97.7 µM (inactive) | > 100 µM (inactive) | > 95.1 µM (inactive) | > 87.1 µM (inactive) | 99.3 µM (inactive) | > 100 µM (inactive) | > 100 µM (inactive) |
